Assay results taken from ChEMBL document CHEMBL5154810, “Development of Potent Immune Modulators Targeting Stimulator of Interferon Genes Receptor” (J Med Chem, 2022).
Values belong to the molecule of their own block, whether it stands above or below them. Calls of active or inactive are those of the source. The calls are words filed in the database; no cut-off is given here.

How the values were obtained:
RAW264.7 [1] = assay: Activation of NF-kappaB mediated pro-inflammatory effector proteins in mouse RAW264.7 cells at 100 to 500 nM for incubated for 3 hrs by western blot analysis; assay type: cell-based; conditions: filed as activator, dose 100-500 nM
[2] = Clearance in BALB/c mouse at 3 mg/kg, iv by LC-MS/MS analysis; assay type: ADME, organism-based; conditions: BALB/c, in vivo
[3] = Toxicity in BALB/c mouse xenografted with mouse CT26 cells assessed as effect on body weight at 1.5 mg/kg, iv measured after 8 days; assay type: organism-based; conditions: in vivo, 192 h, time 8 day
[4] = Volume of distribution at steady state in BALB/c mouse at 3 mg/kg, iv by LC-MS/MS analysis; assay type: ADME, organism-based; conditions: in vivo, read-out: Vdss
[5] = AUClast in BALB/c mouse at 3 mg/kg, iv by LC-MS/MS analysis; assay type: ADME, organism-based; design: time 0 - last, dose 3 mg/kg, route iv; conditions: in vivo
CT26 [6] = assay: Antitumor immunity activity against mouse CT26 cells xenografted in BALB/c mouse model assessed as tumor growth inhibition at 1.5 mg/kg, iv measured after 8 days; assay type: functional, organism-based; conditions: time 8.0 day
RAW264.7 [7] = assay: Induction of IP-10 secretion in mouse RAW264.7 cells at 0.64 to 10000 nM by ELISA; assay type: functional, cell-based; conditions: dose 0.64-10000 nM
[8] = Terminal half life in BALB/c mouse at 3 mg/kg, iv by LC-MS/MS analysis; assay type: ADME, organism-based; conditions: in vivo, read-out: beta t1/2 (converted)
[9] = molecular target: Nuclear factor NF-kappa-B complex (Homo sapiens) (UniProt Q00653+P19838+Q04206); assay: Activation of NF-kappaB mediated pro-inflammatory effector proteins in human THP-1 cells at 2 to 10 nM incubated for 4 hrs by western blot analysis; assay type: cell-based; conditions: filed as activator, dose 2-10 nM
Chain of Nuclear factor NF-kappa-B complex (Homo sapiens) (P19838 whole entry, looked up): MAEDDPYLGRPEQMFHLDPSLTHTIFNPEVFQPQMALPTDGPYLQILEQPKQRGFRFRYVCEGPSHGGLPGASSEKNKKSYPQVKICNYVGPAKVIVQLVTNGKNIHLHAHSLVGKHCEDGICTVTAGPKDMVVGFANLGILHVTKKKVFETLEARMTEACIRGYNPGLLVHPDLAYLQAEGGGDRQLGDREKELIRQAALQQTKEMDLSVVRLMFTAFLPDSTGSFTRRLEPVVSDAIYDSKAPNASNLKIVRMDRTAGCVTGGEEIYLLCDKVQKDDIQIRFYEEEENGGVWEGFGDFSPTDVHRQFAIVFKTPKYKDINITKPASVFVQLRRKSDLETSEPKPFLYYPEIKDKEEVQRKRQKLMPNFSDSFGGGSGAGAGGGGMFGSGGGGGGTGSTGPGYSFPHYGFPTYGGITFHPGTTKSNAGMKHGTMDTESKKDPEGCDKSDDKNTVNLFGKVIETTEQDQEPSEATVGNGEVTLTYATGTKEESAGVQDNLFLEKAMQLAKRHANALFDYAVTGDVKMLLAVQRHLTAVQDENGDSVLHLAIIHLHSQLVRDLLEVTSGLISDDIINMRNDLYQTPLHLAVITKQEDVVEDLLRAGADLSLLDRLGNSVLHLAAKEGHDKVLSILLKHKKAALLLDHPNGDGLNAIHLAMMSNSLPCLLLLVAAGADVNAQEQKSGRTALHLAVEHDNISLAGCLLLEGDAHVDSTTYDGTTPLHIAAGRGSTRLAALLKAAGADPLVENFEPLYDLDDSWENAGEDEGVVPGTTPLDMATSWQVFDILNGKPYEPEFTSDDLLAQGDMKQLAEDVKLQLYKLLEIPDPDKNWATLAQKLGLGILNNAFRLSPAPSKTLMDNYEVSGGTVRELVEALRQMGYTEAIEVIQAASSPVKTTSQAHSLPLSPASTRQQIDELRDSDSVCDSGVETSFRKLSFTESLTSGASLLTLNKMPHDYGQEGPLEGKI
Chain of Nuclear factor NF-kappa-B complex (Homo sapiens) (Q00653 whole entry, looked up): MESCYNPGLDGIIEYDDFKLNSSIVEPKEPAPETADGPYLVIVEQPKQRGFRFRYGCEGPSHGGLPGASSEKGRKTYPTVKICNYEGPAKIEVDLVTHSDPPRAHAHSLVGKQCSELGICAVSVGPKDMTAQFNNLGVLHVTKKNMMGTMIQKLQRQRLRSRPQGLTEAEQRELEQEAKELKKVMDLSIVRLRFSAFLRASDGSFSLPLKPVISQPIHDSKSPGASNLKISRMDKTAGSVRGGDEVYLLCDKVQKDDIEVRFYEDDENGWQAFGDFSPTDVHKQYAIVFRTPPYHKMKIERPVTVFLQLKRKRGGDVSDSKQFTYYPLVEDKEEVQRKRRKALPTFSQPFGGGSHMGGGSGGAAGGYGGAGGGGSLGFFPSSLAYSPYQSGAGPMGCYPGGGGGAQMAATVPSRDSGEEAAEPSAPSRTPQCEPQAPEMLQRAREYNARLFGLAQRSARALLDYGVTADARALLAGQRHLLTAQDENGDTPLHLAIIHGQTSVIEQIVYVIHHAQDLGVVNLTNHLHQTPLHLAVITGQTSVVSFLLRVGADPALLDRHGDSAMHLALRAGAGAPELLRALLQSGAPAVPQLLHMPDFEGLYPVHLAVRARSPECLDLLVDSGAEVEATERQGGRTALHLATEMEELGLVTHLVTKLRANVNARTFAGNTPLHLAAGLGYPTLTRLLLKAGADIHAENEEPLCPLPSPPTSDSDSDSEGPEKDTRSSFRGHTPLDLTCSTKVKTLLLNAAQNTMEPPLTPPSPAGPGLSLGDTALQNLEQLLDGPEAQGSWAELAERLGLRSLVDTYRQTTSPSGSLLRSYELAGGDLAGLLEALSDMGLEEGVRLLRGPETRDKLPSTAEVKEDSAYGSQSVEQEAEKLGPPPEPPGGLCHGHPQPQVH
Chain of Nuclear factor NF-kappa-B complex (Homo sapiens) (Q04206 whole entry, looked up): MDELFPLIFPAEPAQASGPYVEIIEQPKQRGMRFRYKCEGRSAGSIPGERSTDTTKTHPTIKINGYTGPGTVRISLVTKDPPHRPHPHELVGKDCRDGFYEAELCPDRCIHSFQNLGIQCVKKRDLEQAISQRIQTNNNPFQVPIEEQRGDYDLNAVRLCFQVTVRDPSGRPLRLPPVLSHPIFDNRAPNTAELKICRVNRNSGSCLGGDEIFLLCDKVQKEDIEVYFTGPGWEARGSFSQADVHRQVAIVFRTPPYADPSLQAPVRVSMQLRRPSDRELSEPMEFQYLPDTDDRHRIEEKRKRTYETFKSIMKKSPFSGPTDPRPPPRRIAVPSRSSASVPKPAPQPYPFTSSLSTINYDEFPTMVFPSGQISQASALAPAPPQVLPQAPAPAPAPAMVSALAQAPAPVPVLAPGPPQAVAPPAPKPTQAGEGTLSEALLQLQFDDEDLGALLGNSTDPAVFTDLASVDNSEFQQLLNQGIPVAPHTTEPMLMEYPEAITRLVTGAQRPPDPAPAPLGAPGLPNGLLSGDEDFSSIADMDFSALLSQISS

PBMC = assay: Induction of IFN-beta secretion in human PBMC cells at 1.6 to 1000 nM by ELISA; assay type: functional, cell-based; conditions: dose 1.6-1000 nM
[10] = Induction of IP-10 secretion in human THP-1 cells assessed as maximal efficacy by ELISA relative to control; assay type: functional
CT26 [11] = assay: Immunological memory derived cancer inhibition in mouse CT26 cells inoculated in 1.5 mg/kg, iv for 8 days treated/cured BALB/c mouse model assessed as tumor recurrence followed by re-inoculation of cells; assay type: functional, organism-based; conditions: time 8.0 day
[12] = AUCinfinity in BALB/c mouse at 3 mg/kg, iv by LC-MS/MS analysis; assay type: ADME, organism-based; design: time infinity, dose 3 mg/kg, route iv; conditions: BALB/c, in vivo
RAW264.7 [13] = assay: Induction of TNF-alpha secretion in mouse RAW264.7 cells at 0.625 uM incubated for 24 hrs by ELISA; assay type: functional, cell-based
RAW264.7 [14] = assay: Induction of IL-6 secretion in mouse RAW264.7 cells at 2 uM incubated for 24 hrs by ELISA; assay type: functional, cell-based
CT26 [15] = assay: Antitumor immunity activity against mouse CT26 cells xenografted in BALB/c mouse model assessed as tumor growth inhibition at 0.015 mg/kg, iv measured after 8 days; assay type: functional, organism-based; conditions: time 8.0 day
[16] = Activation of IRF-mediated immune response in human THP1-Dual KO-STING cells co-expressing ISRE reporter assessed as normalized luciferase gene expression by measuring relative luciferase units at 50 uM incubated for 24 hrs by QUANTI Luc based microplate reader method; assay type: functional
[17] = Toxicity in BALB/c mouse xenografted with mouse CT26 cells assessed as body weight loss at 0.015 mg/kg, iv measured after 8 days; assay type: organism-based; conditions: in vivo, 192 h, time 8 day
[18] = molecular target: T1, Stimulator of interferon genes protein (Homo sapiens, UniProt Q86WV6); conditions: THP1-Dual, filed as activator, dose 50.0 µM, time 24.0 hrs
T1 sequence (Q86WV6 whole entry): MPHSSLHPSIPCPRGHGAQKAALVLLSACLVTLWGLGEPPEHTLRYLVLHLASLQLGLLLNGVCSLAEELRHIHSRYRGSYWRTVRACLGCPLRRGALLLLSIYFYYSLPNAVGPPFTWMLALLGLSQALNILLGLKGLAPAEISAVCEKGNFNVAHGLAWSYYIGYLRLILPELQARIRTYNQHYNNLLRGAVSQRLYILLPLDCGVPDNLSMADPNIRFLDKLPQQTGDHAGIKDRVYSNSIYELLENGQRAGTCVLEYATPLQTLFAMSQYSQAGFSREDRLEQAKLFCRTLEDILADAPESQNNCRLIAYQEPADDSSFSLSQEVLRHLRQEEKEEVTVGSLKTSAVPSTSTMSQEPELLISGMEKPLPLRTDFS

[19] = Cytotoxicity against human THP1-Dual KO-STING cells assessed as residual cell viability by CellTiter96 Aqueous One Solution Cell Proliferation Assay; assay type: functional; design: concentration or dose not given beside the values
[20] = molecular target: T2, Stimulator of interferon genes protein (Mus musculus) (UniProt Q3TBT3); assay: Activation of STING mediated immune response in mouse RAW264.7 cells assessed as induction of IP-10 secretion at 5000 to 20000 nM measured after 24 hrs by ELISA; assay type: cell-based; conditions: filed as activator, dose 5000-20000 nM
T2 sequence (whole entry): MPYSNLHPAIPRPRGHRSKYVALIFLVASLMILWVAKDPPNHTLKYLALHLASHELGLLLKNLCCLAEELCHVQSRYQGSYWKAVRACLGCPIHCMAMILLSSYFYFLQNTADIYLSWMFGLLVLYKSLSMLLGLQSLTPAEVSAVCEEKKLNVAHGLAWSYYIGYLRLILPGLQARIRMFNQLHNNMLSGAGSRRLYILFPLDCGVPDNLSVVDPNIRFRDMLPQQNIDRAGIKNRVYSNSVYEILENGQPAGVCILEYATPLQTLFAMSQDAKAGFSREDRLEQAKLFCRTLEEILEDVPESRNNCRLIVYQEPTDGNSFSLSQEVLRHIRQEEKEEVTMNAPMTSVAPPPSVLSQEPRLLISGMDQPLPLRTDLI

THP1-Dual = assay: Cytotoxicity against human wild type THP1-Dual cells assessed as residual cell viability by CellTiter96 Aqueous One Solution Cell Proliferation Assay; assay type: functional; design: concentration or dose not given beside the values
[21] = molecular target: T1, Stimulator of interferon genes protein; assay: Activation of STING mediated immune response in human THP-1 cells assessed as induction of IFNbeta secretion at 500 to 5000 nM measured after 24 hrs by ELISA; assay type: cell-based; conditions: filed as activator, dose 500-5000 nM
[22] = molecular target: T2, Stimulator of interferon genes protein (Mus musculus); assay: Activation of STING mediated immune response in mouse RAW264.7 cells assessed as induction of IFNbeta secretion at 5000 to 20000 nM measured after 24 hrs by ELISA; assay type: cell-based; conditions: filed as activator, dose 5000-20000 nM
[23] = molecular target: T1, Stimulator of interferon genes protein; assay: Activation of STING mediated immune response in human THP-1 cells assessed as induction of IP-10 secretion at 500 to 5000 nM measured after 24 hrs by ELISA; assay type: cell-based; conditions: filed as activator, dose 500-5000 nM
[24] = molecular target: T1, Stimulator of interferon genes protein; assay: Binding affinity to recombinant human His-tagged STING by measuring fluorescent signals in the presence of d2 labelled STING wild type ligand by HTRF based microplate reader analysis
[25] = Solubility of the compound in DMSO at 50 to 100 uM incubated for 72 hrs; assay type: physicochemical; conditions: dose 50-100 µM

- clearance [2]: 12 mL/min/kg
- Vd [4]: 1.81 L/kg
- AUC(0-t) [5]: 4240 ng·h/mL
- half-life [8]: 1.75 h
- Activity [9]: Active
- AUC(0-inf) [12]: 4300 ng·h/mL
- RLU [18]: 100
SMILES: CCn1nc(C)cc1C(=O)NCCCOc1cc(C(N)=O)cc2nc(NC(=O)c3cc(C)nn3CC)n(C/C=C/Cn3c(NC(=O)c4cc(C)nn4CC)nc4cc(C(N)=O)cc(OC)c43)c12
- Activity (RAW264.7 [1]): Active
- Activity [3]: Non-Toxic
- Activity (CT26 [6]): Active
- Activity (RAW264.7 [7]): Active
- Activity (PBMC): Active
- Emax [10]: 325%
- Activity (CT26 [11]): Active
- Activity (RAW264.7 [13]): Active
- Activity (RAW264.7 [14]): Active
- Activity (CT26 [15]): Active
- RLU [16]: 0.8
- Activity [17]: Non-Toxic

- Activity [20]: Active
- Activity [21]: Active
- Activity [22]: Active
- Activity [23]: Active
- RLU [18]: 97.8
SMILES: CCn1nc(C)cc1C(=O)/N=c1\[nH]c2cc(C(N)=O)ccc2n1CCCCn1/c(=N/C(=O)c2cc(C)nn2CC)[nH]c2cc(C(N)=O)ccc21
- Activity [19]: 93.8%
- Activity (THP1-Dual): 97.4%
- RLU [16]: 0.8

- IC50 [24]: 6.16 nM
- solubility [25]: Insoluble
SMILES: CCn1nc(C)cc1C(=O)Nc1nc2cc(C(N)=O)ccc2n1CCCCn1c(NC(=O)c2cc(C)nn2CC)nc2cc(C(N)=O)ccc21
